Test results published in patent publication US20160046592A1, “PHARMACEUTICAL COMPOSITION FOR THE TREATMENT OF DIABETES” (Ajinomoto Co., Inc., priority 2013, published 2016).

Biological target: T1, human GYS1 (glycogen synthase) (Homo sapiens, UniProt P13807)
T1 construct: made in house; host or cells: HEK293T
T1 sequence (P13807 1-737): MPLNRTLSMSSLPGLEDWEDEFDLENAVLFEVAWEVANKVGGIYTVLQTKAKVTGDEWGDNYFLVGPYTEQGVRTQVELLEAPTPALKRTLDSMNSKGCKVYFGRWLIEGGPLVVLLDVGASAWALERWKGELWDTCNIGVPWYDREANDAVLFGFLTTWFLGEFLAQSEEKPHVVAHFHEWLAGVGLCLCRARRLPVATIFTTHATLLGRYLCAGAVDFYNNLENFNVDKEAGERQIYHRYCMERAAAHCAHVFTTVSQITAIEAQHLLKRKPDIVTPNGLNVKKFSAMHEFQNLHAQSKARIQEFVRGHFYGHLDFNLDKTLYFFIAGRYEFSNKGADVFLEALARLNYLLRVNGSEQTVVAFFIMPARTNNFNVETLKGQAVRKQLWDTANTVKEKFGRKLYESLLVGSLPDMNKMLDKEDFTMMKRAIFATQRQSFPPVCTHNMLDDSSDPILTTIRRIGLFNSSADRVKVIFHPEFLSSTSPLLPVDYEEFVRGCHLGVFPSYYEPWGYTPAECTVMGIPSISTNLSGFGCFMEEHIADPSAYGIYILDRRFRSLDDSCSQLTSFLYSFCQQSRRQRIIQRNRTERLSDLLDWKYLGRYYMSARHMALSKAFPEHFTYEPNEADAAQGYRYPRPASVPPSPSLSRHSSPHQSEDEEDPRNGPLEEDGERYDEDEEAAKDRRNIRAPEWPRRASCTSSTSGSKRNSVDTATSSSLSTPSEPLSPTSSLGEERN
Assay: Measurement of glycogen synthase activity
Assay type: biochemical
Details: concentration causing 50% increase in relative activity; 100% = compound of Example 1 of WO/2011/058154 at 10 μM; 10 mM Glucose-6-phosphate; 37° C. for 25 minutes (Examples 1 to 61 and 67 to 82) or 20 minutes (Examples 62 to 66); absorbance at 340 nm
Summary of the method: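 Human GYS1 from transfected HEK293T cells (re-dissolved 16000×g pellet) was reacted at 37 °C for 25 or 20 min in glycylglycine pH 7.3 with glucose-6-phosphate, glycogen and UDP-glucose. PK/LDH-coupled NADH read-out at 340 nm; EC50 from activity relative to a reference activator at 10 μM final (100%).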

EC50	SMILES
20 nM	CC(=O)N1CCC(CN(CC(=O)O)C(=O)c2cccc(COc3ccc(-c4cc(F)c(F)c5ccoc45)cc3)c2)CC1 [Example 81, 2-[(1-Acetyl-4-piperidyl)methyl-[3-[[4-(4,5-difluorobenzofuran-7-yl)phenoxy]methyl]benzoyl]amino]acetic Acid]
19 nM	O=C(O)CN(C(=O)c1cccc(COc2ccc(-c3cc(F)c(F)c4ccoc34)cc2)c1)C1CCNC1=O (centres unmarked) [Example 82, 2-[[3-[[4-(4,5-Difluorobenzofuran-7-yl)phenoxy]methyl]benzoyl]-(2-oxopyrrolidin-3-yl)amino]acetic Acid]
